Data as given in ChEMBL document CHEMBL5579889, “Structure-Based Design and Development of Phosphine Oxides as a Novel Chemotype for Antibiotics that Dysregulate Bacterial ClpP Proteases” (J Med Chem, 2024).
In brackets after ≈: the same amount, converted by molar mass. Activity calls are given as the source filed them. The calls are words filed in the database; no cut-off is given here.

Experiments:
[1] = molecular target: ATP-dependent Clp protease proteolytic subunit (Escherichia coli (strain K12), UniProt P0A6G7); experiment: Activation of N-terminal His-tagged recombinant Escherichia coli ClpP expressed in Escherichia coli SG1146(DE3) assessed as degradation of casein-FITC preincubated for 10 mins followed by casein addition measured for over 100 mins by fluorescence based assay
Chain of ATP-dependent Clp protease proteolytic subunit (Escherichia coli (strain K12), UniProt P0A6G7) (P0A6G7 whole entry): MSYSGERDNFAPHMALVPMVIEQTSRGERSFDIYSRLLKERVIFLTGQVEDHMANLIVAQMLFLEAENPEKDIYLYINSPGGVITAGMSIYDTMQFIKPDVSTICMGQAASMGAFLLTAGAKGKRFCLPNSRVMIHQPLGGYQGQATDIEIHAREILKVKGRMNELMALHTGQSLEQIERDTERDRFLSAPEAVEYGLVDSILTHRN

[2] = molecular target: T1, ATP-dependent Clp protease proteolytic subunit (Staphylococcus aureus (strain NCTC 8325)) (UniProt Q2G036); experiment: Activation of N-terminal His-tagged recombinant Staphylococcus aureus ClpP expressed in Escherichia coli SG1146(DE3) assessed as degradation of casein-FITC at 100 uM preincubated for 10 mins followed by casein addition measured for over 100 mins by fluorescence based assay; details: time > 110.0 min
T1 sequence (whole entry): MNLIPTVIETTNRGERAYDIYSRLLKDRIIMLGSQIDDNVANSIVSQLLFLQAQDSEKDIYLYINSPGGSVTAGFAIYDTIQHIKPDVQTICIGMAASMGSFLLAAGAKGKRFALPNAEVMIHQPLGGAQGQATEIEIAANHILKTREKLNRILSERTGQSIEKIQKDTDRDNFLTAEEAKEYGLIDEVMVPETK

[3] = molecular target: ATP-dependent Clp protease proteolytic subunit, mitochondrial (Homo sapiens) (UniProt Q16740); experiment: Activation of N-terminal His-tagged recombinant human ClpP expressed in Escherichia coli SG1146(DE3) assessed as degradation of casein-FITC at 100 uM preincubated for 10 mins followed by casein addition measured for over 100 mins by fluorescence based assay; details: time > 110.0 min
Chain of ATP-dependent Clp protease proteolytic subunit, mitochondrial (Homo sapiens) (Q16740 whole entry): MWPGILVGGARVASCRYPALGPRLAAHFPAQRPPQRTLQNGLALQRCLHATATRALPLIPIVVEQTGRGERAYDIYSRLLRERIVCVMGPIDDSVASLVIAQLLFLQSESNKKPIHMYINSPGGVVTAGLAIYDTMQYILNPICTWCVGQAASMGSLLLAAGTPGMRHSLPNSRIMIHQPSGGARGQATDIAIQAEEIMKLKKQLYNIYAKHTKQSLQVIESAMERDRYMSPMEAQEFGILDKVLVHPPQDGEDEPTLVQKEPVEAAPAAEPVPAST

[4] = test system: Streptococcus pneumoniae; experiment: Activation of recombinant Streptococcus pneumoniae ClpP extracted from Escherichia coli SG1146(DE3) assessed as degradation of casein-FITC at 100 uM preincubated for 10 mins followed by casein addition measured for over 100 mins by fluorescence based assay; details: time > 110.0 min
[5] = molecular target: ATP-dependent Clp protease proteolytic subunit (Neisseria gonorrhoeae, UniProt Q5F914); experiment: Activation of N-terminal His-tagged recombinant Neisseria gonorrhoeae ClpP expressed in Escherichia coli SG1146(DE3) assessed as degradation of casein-FITC preincubated for 10 mins followed by casein addition measured for over 100 mins by fluorescence based assay
Chain of ATP-dependent Clp protease proteolytic subunit (Neisseria gonorrhoeae, UniProt Q5F914) (Q5F914 whole entry): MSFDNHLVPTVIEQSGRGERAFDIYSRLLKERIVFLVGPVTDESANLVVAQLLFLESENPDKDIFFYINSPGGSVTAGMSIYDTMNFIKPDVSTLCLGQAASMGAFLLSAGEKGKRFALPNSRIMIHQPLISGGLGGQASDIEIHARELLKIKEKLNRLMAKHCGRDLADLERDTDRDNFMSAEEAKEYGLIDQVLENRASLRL

[6] = test system: Neisseria meningitidis; experiment: Antibacterial activity against wild-type Neisseria meningitidis H44/76 measured after 16 to 18 hrs by OD based assay; format: functional; details: time 16-18 hrs
[7] = test system: Neisseria meningitidis; experiment: Antibacterial activity against Neisseria meningitidis BZ169 measured after 16 to 18 hrs by OD based assay; format: functional; details: time 16-18 hrs
[8] = test system: Neisseria meningitidis; experiment: Antibacterial activity against Neisseria meningitidis SWZ107 measured after 16 to 18 hrs by OD based assay; format: functional; details: time 16-18 hrs
[9] = test system: Neisseria gonorrhoeae; experiment: Antibacterial activity against Neisseria gonorrhoeae WHO N measured after 16 to 18 hrs by OD based assay; format: functional; details: time 16-18 hrs
[10] = test system: Neisseria meningitidis; experiment: Antibacterial activity against Neisseria meningitidis EG329 measured after 16 to 18 hrs by OD based assay; format: functional; details: time 16-18 hrs
[11] = test system: Neisseria meningitidis; experiment: Antibacterial activity against Neisseria meningitidis NGF26 measured after 16 to 18 hrs by OD based assay; format: functional; details: time 16-18 hrs
[12] = test system: Neisseria meningitidis; experiment: Antibacterial activity against Neisseria meningitidis NG144/82 measured after 16 to 18 hrs by OD based assay; format: functional; details: time 16-18 hrs
[13] = test system: Neisseria gonorrhoeae; experiment: Antibacterial activity against Neisseria gonorrhoeae FA19 measured after 16 to 18 hrs by OD based assay; format: functional; details: time 16-18 hrs
[14] = test system: Neisseria gonorrhoeae; experiment: Antibacterial activity against Neisseria gonorrhoeae WHO L measured after 16 to 18 hrs by OD based assay; format: functional; details: time 16-18 hrs
[15] = test system: Neisseria gonorrhoeae; experiment: Antibacterial activity against Neisseria gonorrhoeae WHO V measured after 16 to 18 hrs by OD based assay; format: functional; details: time 16-18 hrs
[16] = test system: Neisseria meningitidis; experiment: Antibacterial activity against Neisseria meningitidis BZ133 measured after 16 to 18 hrs by OD based assay; format: functional; details: time 16-18 hrs
[17] = test system: Neisseria gonorrhoeae; experiment: Antibacterial activity against Neisseria gonorrhoeae WHO M measured after 16 to 18 hrs by OD based assay; format: functional; details: time 16-18 hrs
[18] = test system: Neisseria meningitidis; experiment: Antibacterial activity against Neisseria meningitidis AK50 measured after 16 to 18 hrs by OD based assay; format: functional; details: time 16-18 hrs
[19] = test system: Neisseria meningitidis; experiment: Antibacterial activity against Neisseria meningitidis NGPB24 measured after 16 to 18 hrs by OD based assay; format: functional; details: time 16-18 hrs
[20] = test system: Neisseria meningitidis; experiment: Antibacterial activity against Neisseria meningitidis H44/76 harboring deltaclpP measured after 16 to 18 hrs by OD based assay; format: functional; details: time 16-18 hrs
[21] = test system: Neisseria gonorrhoeae; experiment: Antibacterial activity against Neisseria gonorrhoeae WHO G measured after 16 to 18 hrs by OD based assay; format: functional; details: time 16-18 hrs
[22] = test system: Neisseria gonorrhoeae; experiment: Antibacterial activity against Neisseria gonorrhoeae WHO X measured after 16 to 18 hrs by OD based assay; format: functional; details: time 16-18 hrs
[23] = test system: Neisseria gonorrhoeae; experiment: Antibacterial activity against Neisseria gonorrhoeae WHO K measured after 16 to 18 hrs by OD based assay; format: functional; details: time 16-18 hrs
[24] = test system: Neisseria gonorrhoeae; experiment: Antibacterial activity against Neisseria gonorrhoeae MS11 measured after 16 to 18 hrs by OD based assay; format: functional; details: time 16-18 hrs
[25] = test system: Neisseria meningitidis; experiment: Antibacterial activity against Neisseria meningitidis 88/03415 measured after 16 to 18 hrs by OD based assay; format: functional; details: time 16-18 hrs
[26] = test system: Neisseria gonorrhoeae; experiment: Antibacterial activity against Neisseria gonorrhoeae WHO Z measured after 16 to 18 hrs by OD based assay; format: functional; details: time 16-18 hrs
[27] = test system: Neisseria gonorrhoeae; experiment: Antibacterial activity against Neisseria gonorrhoeae WHO Y measured after 16 to 18 hrs by OD based assay; format: functional; details: time 16-18 hrs
[28] = test system: Neisseria gonorrhoeae; experiment: Antibacterial activity against Neisseria gonorrhoeae WHO P measured after 16 to 18 hrs by OD based assay; format: functional; details: time 16-18 hrs
[29] = molecular target: ATP-dependent Clp protease proteolytic subunit (Neisseria gonorrhoeae) (UniProt Q5F914); experiment: Activation of N-terminal His-tagged recombinant Neisseria gonorrhoeae ClpP expressed in Escherichia coli SG1146(DE3) assessed as degradation of casein-FITC at 100 uM preincubated for 10 mins followed by casein addition measured for over 100 mins by fluorescence based assay; details: time > 110.0 min
Chain of ATP-dependent Clp protease proteolytic subunit (Neisseria gonorrhoeae) (Q5F914 whole entry): as above

[30] = molecular target: ATP-dependent Clp protease proteolytic subunit (Escherichia coli (strain K12)) (UniProt P0A6G7); experiment: Activation of N-terminal His-tagged recombinant Escherichia coli ClpP expressed in Escherichia coli SG1146(DE3) assessed as degradation of casein-FITC at 100 uM preincubated for 10 mins followed by casein addition measured for over 100 mins by fluorescence based assay; details: filed as activator, time > 110.0 min
Chain of ATP-dependent Clp protease proteolytic subunit (Escherichia coli (strain K12)) (P0A6G7 whole entry): as the sequence (P0A6G7 whole entry) above

For `CC(C(=O)NCCSc1ccccc1C(F)(F)F)P(=O)(c1ccc(C(F)(F)F)cn1)c1ccc(C(F)(F)F)cn1` (stereo not drawn), the EC50 [1] was 2.05 µM, the Activity [2] was “inactive” and the Activity [3] was “inactive”. The Activity [4] was “inactive” and the EC50 [5] was 2.75 µM.
For `CCCC/C=C/C(=O)N[C@@H](Cc1ccccc1)C(=O)N[C@H]1COC(=O)[C@@H]2CCCN2C(=O)[C@H](C)NC(=O)[C@@H]2CCCCN2C(=O)[C@@H]2CCCN2C1=O`, the Activity [2] was “inactive” and the Activity [4] was “inactive”.
With `CC(C)(C(=O)NCCSc1ccccc1Br)P(=O)(c1ccc(C(F)(F)F)cc1)c1ccc(C(F)(F)F)cc1` the EC50 [1] was 7.23 µM, the Activity [2] was “inactive” and the Activity [3] was “inactive”. The Activity [4] was “inactive” and the EC50 [5] was 3.39 µM.
`CC(C(=O)NCCSc1ccccc1Cl)P(=O)(c1ccccc1)c1ccccc1` (stereo not drawn) gave an MIC [6] of 1 µM (≈ 0.444 µg/mL), an MIC [7] of 1 µM (≈ 0.444 µg/mL) and an MIC [8] of 0.3 µM (≈ 0.133 µg/mL). For the same compound, the MIC [9] was 1.6 µM (≈ 0.71 µg/mL), the MIC [10] was 1.7 µM (≈ 0.755 µg/mL) and the MIC [11] was 1.6 µM (≈ 0.71 µg/mL). It also gave an MIC [12] of 0.3 µM (≈ 0.133 µg/mL), an MIC [13] of 3.1 µM (≈ 1.38 µg/mL) and an MIC [14] of 3.1 µM (≈ 1.38 µg/mL). For the same compound, the MIC [15] was 3.1 µM (≈ 1.38 µg/mL), the MIC [16] was 2.4 µM (≈ 1.07 µg/mL) and the MIC [17] was 1.6 µM (≈ 0.71 µg/mL). The MIC [18] was 4.7 µM (≈ 2.09 µg/mL), the MIC [19] was 3.1 µM (≈ 1.38 µg/mL) and the MIC [20] was > 25 µM. It also gave an MIC [21] of 1.6 µM (≈ 0.71 µg/mL), an MIC [22] of 4.7 µM (≈ 2.09 µg/mL) and an MIC [23] of 1.6 µM (≈ 0.71 µg/mL). The MIC [24] was 3.1 µM (≈ 1.38 µg/mL), the MIC [25] was 1.6 µM (≈ 0.71 µg/mL) and the MIC [26] was 1.6 µM (≈ 0.71 µg/mL). The MIC [27] was 12.5 µM (≈ 5.55 µg/mL) and the MIC [28] was 3.1 µM (≈ 1.38 µg/mL).
`CC(C(=O)NCCSc1ccccc1C(F)(F)F)P(=O)(c1ccc(C(F)(F)F)cc1)c1ccc(C(F)(F)F)cc1` (stereo not drawn) was tested, and the Activity [29] was “inactive”, the EC50 [1] was 4.45 µM and the Activity [30] was “Active”.
With `O=C(CP(=O)(c1ccc(C(F)(F)F)cn1)c1ccc(C(F)(F)F)cn1)NCCSc1ccccc1C(F)(F)F` the EC50 [1] was 1.79 µM, the Activity [2] was “inactive” and the Activity [3] was “inactive”. For the same compound, the Activity [4] was “inactive” and the EC50 [5] was 4.9 µM.
